Measured values: patent publication US7943655B2, “Polymorphic and pseudopolymorphic forms of trandolaprilat, pharmaceutical compositions and methods for production and use” (Universitat Zurich, priority 2006, dated 2011)
Several values for one entry are separate records, joined by “and”; a condition that tells them apart may be missing. Equal entries are not always repeated.

Experiments:
[1] = Degradation to Trandolaprilat diketopiperazine in non-hydroxylic solvent (THF solution); type: physicochemical
Excerpt: Furthermore, crystallization and precipitation from non-hydroxylic solvents often provided a resin that could only be difficultly handled.

[2] = Solubility in n-butanol with and without water; type: physicochemical
Excerpt: In step (f), an amount of water is removed from the solution of step (e) that is sufficient for inducing crystallization of the Trandolaprilat and provide crystalline Trandolaprilat in a polymorphic or pseudopolymorphic form. Because Trandolaprilat is not soluble in anhydrous n-butanol, its crystallization from the organic layer can be initiated by removing the water, for example, by concentrating an n-butanol/water solution containing the Trandolaprilat using azeotropic distillation (to provide crystalline Trandolaprilat).

[3] = biological target: Angiotensin Converting Enzyme (ACE enzyme) (Homo sapiens, UniProt P12821); settings: compared with Trandolapril; cited from earlier work
Angiotensin Converting Enzyme (ACE enzyme), sequence (P12821 30-1306, species assumed): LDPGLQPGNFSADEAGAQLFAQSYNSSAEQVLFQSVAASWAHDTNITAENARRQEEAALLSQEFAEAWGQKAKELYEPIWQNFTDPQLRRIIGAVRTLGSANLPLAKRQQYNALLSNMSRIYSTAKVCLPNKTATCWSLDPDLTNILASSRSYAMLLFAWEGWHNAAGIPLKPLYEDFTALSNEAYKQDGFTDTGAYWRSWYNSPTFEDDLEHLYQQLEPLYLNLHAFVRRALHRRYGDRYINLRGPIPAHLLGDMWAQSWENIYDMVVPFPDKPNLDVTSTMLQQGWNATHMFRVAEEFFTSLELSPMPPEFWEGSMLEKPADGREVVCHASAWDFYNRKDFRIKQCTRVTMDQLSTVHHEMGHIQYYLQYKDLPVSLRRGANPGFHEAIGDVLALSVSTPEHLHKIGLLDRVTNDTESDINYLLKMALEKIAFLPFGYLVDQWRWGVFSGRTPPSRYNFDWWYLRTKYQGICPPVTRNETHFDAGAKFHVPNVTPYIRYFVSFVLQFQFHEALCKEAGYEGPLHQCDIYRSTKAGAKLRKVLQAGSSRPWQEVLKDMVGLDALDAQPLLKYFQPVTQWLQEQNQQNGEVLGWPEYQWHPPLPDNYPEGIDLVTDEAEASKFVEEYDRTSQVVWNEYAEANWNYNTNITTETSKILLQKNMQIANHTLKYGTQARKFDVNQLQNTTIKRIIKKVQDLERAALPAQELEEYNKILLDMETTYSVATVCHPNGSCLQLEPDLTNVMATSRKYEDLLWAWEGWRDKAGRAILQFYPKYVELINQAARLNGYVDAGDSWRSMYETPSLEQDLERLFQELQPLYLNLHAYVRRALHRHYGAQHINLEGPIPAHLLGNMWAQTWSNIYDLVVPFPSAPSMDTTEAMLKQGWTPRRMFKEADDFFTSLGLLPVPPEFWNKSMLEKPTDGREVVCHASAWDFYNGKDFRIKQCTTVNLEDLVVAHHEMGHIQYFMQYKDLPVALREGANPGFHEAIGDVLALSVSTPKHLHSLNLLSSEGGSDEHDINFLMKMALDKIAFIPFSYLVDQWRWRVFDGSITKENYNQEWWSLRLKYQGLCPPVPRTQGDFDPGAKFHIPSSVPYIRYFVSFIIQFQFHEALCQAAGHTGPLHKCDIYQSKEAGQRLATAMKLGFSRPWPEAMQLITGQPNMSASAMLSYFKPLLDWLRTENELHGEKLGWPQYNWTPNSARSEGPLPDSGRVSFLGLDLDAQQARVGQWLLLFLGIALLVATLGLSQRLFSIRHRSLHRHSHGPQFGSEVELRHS

[4] = Storage stability of crystalline forms (decomposition to Trandolaprilat diketopiperazine, by HPLC); type: physicochemical; settings: for Amount of Trandolaprilat Diketopiperazine after Isolation and Drying of the Wet Product: before storage; for Tendency to decompose to Trandolaprilat Diketopiperazine on storage (in words): comparison of crystalline forms, Table 9
Description: Purity was determined by HPLC using a Luna C18 (150×4.6 mm, 3 μm; Manufacturer: Phenomenex, Torrence, Calif., USA) column, as well as a Symmetry C18(2) (150×4.6 mm, 3.5 μm; Manufacturer: Waters Corporation, Millford, Mass., USA) column using as mobile phase: Mobile phase A: 0.03% v/v of trifluoroacetic acid in water; Mobile phase B: 0.025% v/v of trifluoroacetic acid in acetonitrile; column temperature 30° C., flow rate: 1.5 ml/min, detection: UV 206 nm; eluent gradient: […]

[5] = storage temperature 20-25, storage time 4 months

SMILES | Formation of degradation product Trandolaprilat diketopiperazine ([1]; THF solution heated at reflux temperature) | Rate of degradation to Trandolaprilat diketopiperazine ([1]; dissolved in THF, room temperature) | Solubility ([2]; anhydrous n-butanol) | Solubility ([2]; free amino acid form, n-butanol saturated with water) | Potency as an inhibitor of ACE activity relative to Trandolapril [3] | Amount of Trandolaprilat Diketopiperazine after Isolation and Drying of the Wet Product [4] | Tendency to decompose to Trandolaprilat Diketopiperazine on storage (in words) [4] | Amount of Trandolaprilat Diketopiperazine after Storage [4, 5] [% by HPLC] | Amount of Trandolaprilat Diketopiperazine after Storage ([4]; storage temperature 4-8, storage time 3 months) [% by HPLC] | Amount of Trandolaprilat Diketopiperazine after Storage ([4]; storage temperature 20-25, storage time 3 months) [% by HPLC]
C[C@H](N[C@@H](CCc1ccccc1)C(=O)O)C(=O)N1[C@H](C(=O)O)C[C@H]2CCCC[C@@H]21 [Trandolaprilat] | almost complete within a few hours | at least 0.2 % per hour | not soluble | soluble | about eight times more potent than Trandolapril | – | – | – | – | –
C[C@H](N[C@@H](CCc1ccccc1)C(=O)O)C(=O)N1[C@H](C(=O)O)C[C@H]2CCCC[C@@H]21 [Form C, Trandolaprilat] | – | – | – | – | – | Not Detected | significantly lower | 0.26 | – | –
C[C@H](N[C@@H](CCc1ccccc1)C(=O)O)C(=O)N1[C@H](C(=O)O)C[C@H]2CCCC[C@@H]21 [Form D, Trandolaprilat] | – | – | – | – | – | Not Detected | only a very low quantity of the degradation product | 0.03 | – | –
C[C@H](N[C@@H](CCc1ccccc1)C(=O)O)C(=O)N1[C@H](C(=O)O)C[C@H]2CCCC[C@@H]21 [Form A, Trandolaprilat] | – | – | – | – | – | Not Detected | only a very low quantity of the degradation product | 0.02 | – | –
C[C@H](N[C@@H](CCc1ccccc1)C(=O)O)C(=O)N1[C@H](C(=O)O)C[C@H]2CCCC[C@@H]21 [Form B, Trandolaprilat] | – | – | – | – | – | Not Detected | significantly lower | 0.20 | – | –
C[C@H](N[C@@H](CCc1ccccc1)C(=O)O)C(=O)N1[C@H](C(=O)O)C[C@H]2CCCC[C@@H]21 [Form E, Trandolaprilat] | – | – | – | – | – | 0.34 %, by HPLC and 0.19 %, by HPLC | greater tendency to decompose | – | 0.75 | 0.92
